Experimental data as given in US20260174878A1, “IRAK4 DEGRADATION AGENT AND USE THEREOF” (LEADINGTAC PHARMACEUTICAL (SHAOXING) CO., LTD., priority 2022, published 2026).

Key:
IRAK4 kinase = molecular target: T1, IRAK4 kinase (Homo sapiens, UniProt Q9NWZ3); test: IRAK4 kinase activity test (KinEASE-STK S1 HTRF kit); format: biochemical; conditions: IRAK4 kinase 2.5 nM, 7 μM adenosine triphosphate, 37° C. 120 min
T1 construct: purchased Carna
T1 sequence (Q9NWZ3 1-460): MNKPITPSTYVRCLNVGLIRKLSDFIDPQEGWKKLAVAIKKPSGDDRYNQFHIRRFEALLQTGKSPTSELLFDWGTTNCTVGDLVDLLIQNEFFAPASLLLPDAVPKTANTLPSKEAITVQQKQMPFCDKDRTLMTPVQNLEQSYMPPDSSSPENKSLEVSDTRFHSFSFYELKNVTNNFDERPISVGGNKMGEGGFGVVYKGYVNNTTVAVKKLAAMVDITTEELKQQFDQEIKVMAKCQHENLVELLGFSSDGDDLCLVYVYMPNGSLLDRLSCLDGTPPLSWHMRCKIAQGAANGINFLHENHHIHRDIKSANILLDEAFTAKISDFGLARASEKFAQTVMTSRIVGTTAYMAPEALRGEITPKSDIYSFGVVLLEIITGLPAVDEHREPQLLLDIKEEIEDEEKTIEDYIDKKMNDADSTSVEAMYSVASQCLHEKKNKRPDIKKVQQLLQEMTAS
Description: Then 2.5 nM IRAK4 kinase (Carna), 1 μM biotinylated polypeptide substrate (Cisbio), and 7 μM adenosine triphosphate (Sigma-Aldrich) were sequentially added, and the mixtures were incubated at 37° C. for 120 min. Subsequently, an anti-phosphoserine/threonine antibody (Cisbio) conjugated with a europium element compound and streptavidin conjugated with a modified XL665 (Cisbio) were added to the reaction system to stop the reaction. After 1 h of incubation at room temperature, the fluorescence intensity of each well was measured at the excitation wavelength of 337 nm and the emission wavelengths of 620 nm and 665 nm with a microplate reader EnVision (PerkinElmer) in the HTRF mode, and Ratio values were calculated using the formula: Ratio=(665 nm/620 nm)×10^4. The inhibition rates of the compounds at each concentration were calculated by comparison with the fluorescence intensity ratio of the control group. Then non-linear curve fittings for logarithmic concentration-inhibition rate were performed using GraphPad Prism 7, and the IC50 values of the compounds were obtained.

[1] = molecular target: T2, IRAK4 protein in normal human PBMCs (Homo sapiens, UniProt Q9NWZ3); test: Degradation of IRAK4 protein in normal human PBMCs (AlphaLISA); format: cell-based; conditions: 24 h incubation
T2 construct: host or cells: normal human PBMCs
T2 sequence (Q9NWZ3 1-460): T1 sequence (Q9NWZ3 1-460)
In short: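 Cryopreserved normal human PBMCs treated with compound at 0.01-3000 nM (0.25% DMSO) for 24 h at 37 °C. IRAK4 in lysates quantified by AlphaLISA against a standard curve and normalized to BCA total protein. Degradation versus control fitted to give DC50 and Dmax.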

[2] = test system: imiquimod-induced mouse psoriasis model; test: Imiquimod-induced C57 mouse psoriasis model; format: in vivo, C57BL/6 mice; conditions: p<0.0001
Description: Then 10% of the total volume of Solutol was added, and the mixture was subjected to vortex ultrasonic treatment until clear. […] The compound was formulated fresh for each use.
B. Imiquimod sensitization and drug intervention on C57BL/6J mice were conducted, with specific administration times shown in Table 6. • i. On Day 1, the backs of the mice were shaved, ensuring consistent area using a mold, approximately 2 cm×3 cm, and 60 mice were selected; • ii. the mice were randomly divided into 6 groups based on body weight and right ear thickness, with 10 mice per group; • iii. 6 to induce psoriasis symptoms in the model mice, imiquimod was applied on the back skin and right ear of the mice in groups G2-G6 for sensitization at noon on Day 0, and this continued for 7 days. • iv. […] Endpoint sampling of the mice was performed on Day 5 or Day 7.
• Clinical score and right ear thickness.

## COc1cc2nn([C@H]3CC[C@@](COCCC4CCN(C(=O)c5ccc(Cl)c(N6CCC(=O)NC6=O)c5)CC4)(OC)CC3)cc2cc1NC(=O)c1cccc(C(F)(F)F)n1 [Example 36]
IRAK4 kinase
  IC50: 9.29 nM
[1]
  DC50: 2.03 nM
  Dmax: 98.6%

## C=C1/C(=C\C=C2/CCC[C@]3(C)[C@@H]([C@H](C)CCCC(C)(C)O)CC[C@@H]23)C[C@@H](O)C[C@@H]1O [calcitriol]
[2]; ointment 75 mg back + 24 mg right ear/mouse topical QD
  inhibition rate relative to vehicle control (AUC of clinical score): 44.5%

## CC(=O)OCC(=O)[C@@]1(O)[C@H](C)C[C@H]2[C@@H]3CCC4=CC(=O)C=C[C@]4(C)[C@@]3(F)[C@@H](O)C[C@@]21C [dexamethasone, Dexamethasone acetate]
[2]; 5 mpk p.o. QD
  inhibition rate relative to vehicle control (AUC of clinical score): 20.7%
